Measured values taken from the NIST ThermoML archive (doi:10.1016/j.jct.2018.04.001).

Conditions: Liquid, Vibrating wire viscometry

FC(F)(F)/C=C/Cl [(E)-1-chloro-3,3,3-trifluoroprop-1-ene]
Conditions | viscosity [mPa·s]
303.15 K, 20000 kPa | 0.3337
303.15 K, 30000 kPa | 0.3635
303.16 K, 40000 kPa | 0.393
313.15 K, 300 kPa | 0.2464
313.15 K, 10000 kPa | 0.2767
313.15 K, 20000 kPa | 0.3058
313.15 K, 30000 kPa | 0.3337
313.15 K, 40000 kPa | 0.3611
313.16 K, 1000 kPa | 0.2489
313.16 K, 5000 kPa | 0.2611
323.14 K, 40000 kPa | 0.3345
323.15 K, 400 kPa | 0.2243
323.15 K, 1000 kPa | 0.2267
323.15 K, 5000 kPa | 0.2393
323.15 K, 10000 kPa | 0.254
323.15 K, 20000 kPa | 0.2819
323.15 K, 30000 kPa | 0.3084
333.15 K, 500 kPa | 0.2047
333.15 K, 1000 kPa | 0.2069
333.15 K, 5000 kPa | 0.2192
333.15 K, 10000 kPa | 0.2344
333.15 K, 20000 kPa | 0.262
333.15 K, 30000 kPa | 0.2888
333.15 K, 40000 kPa | 0.3147
343.14 K, 30000 kPa | 0.2702
343.14 K, 40000 kPa | 0.2946
343.15 K, 600 kPa | 0.1887
343.15 K, 1000 kPa | 0.1903
343.15 K, 5000 kPa | 0.2029
343.15 K, 10000 kPa | 0.2179
343.15 K, 20000 kPa | 0.245
353.14 K, 10000 kPa | 0.1999
353.14 K, 30000 kPa | 0.2503
353.15 K, 5000 kPa | 0.1846
353.15 K, 20000 kPa | 0.2277
353.15 K, 40000 kPa | 0.2733
363.15 K, 5010 kPa | 0.1701
363.15 K, 10000 kPa | 0.1845
363.15 K, 20000 kPa | 0.2107
363.15 K, 40000 kPa | 0.257
363.16 K, 30000 kPa | 0.2345
373.14 K, 40000 kPa | 0.2449
373.15 K, 5000 kPa | 0.1581
373.15 K, 10000 kPa | 0.1734
373.15 K, 20000 kPa | 0.1996
373.15 K, 30000 kPa | 0.2229
